Measured values published in patent US20090181935A1, “COMPOSITIONS COMPRISING AN […] AND A LONG-ACTING BETA-AGONIST” (Chiesi Farmaceutici S.p.A., priority 2008, published 2009).
Counter-ions that a name gives are not always drawn. Like-named read-outs stand apart in the source and are kept apart here. Blank lines part the entries; values can stand above or below the compound they belong to.

Key:
[1] = test system: carbachol-induced contraction in guinea-pigs trachea; test: Carbachol-induced contraction in guinea-pig trachea strips, relaxation, isobolographic analysis; type: cell-based; conditions: Cavia porcellus, read-out: ED50, relaxation of carbachol-induced contraction
Procedure: Male guinea-pigs (380-420 g) are used. The investigation conforms to the Guide for the Care and Use of Laboratory Animals published by the US National Institutes of Health (NIH Publication No. 85-23, revised 1996).
The trachea is removed, cleaned and cut into two zig-zag strips, according to Emmerson et al. (J. Pharm. Pharmacol., 1979; 31:798). A sub-maximal concentration of carbachol (3×10^−7 M) is then added to the organ bath and when stable contraction is reached, a cumulative concentration-response curve (from 1×10^−11 to 1×10^−7 M) to carmoterol or compound 1′ is generated (n=12 for each compound). Maximal relaxation is tested by adding a maximal dose of isoproterenol (3×10^−7 M) at the end of the curve. Data are expressed as percentages of the isoproterenol-induced maximal relaxation. Isobolographic analysis is used to characterize the pharmacological interaction between carmoterol and compound 1′.
To estimate the experimental ED50MIX, the dose-effect curve resulting from this second set of experiments (Table 1) is fitted with a mixed logistic model. All computations are carried out resorting to NLMIXED procedure (SAS/STAT® User's Guide, version 9, 2004. SAS Institute Inc., Cary, N.C.).

[2] = test system: acetylcholine (Ach) challenge, airway reactivity; test: Bronchodilation activity: Ach-induced increase in Penh, barometric plethysmography after nebulisation; type: in vivo, guinea pigs; conditions: for bronchoprotective effect: twenty-four hours
Procedure: (§1) Airway reactivity is measured using barometric plethysmography (Buxco, USA). Male guinea pigs (500-600 g) are individually placed in plexiglass chambers. After an acclimatisation period, animals are exposed to nebulised saline for 1 minute to obtain airway baseline reading. This is followed by a 1 minute challenge with nebulised acetylcholine (Ach)-2.5 mg/mL.
(§2) After 60 minutes, 5 minutes nebulisation of vehicle or the compound 1′ in the range 2.5-250 μM are applied and Ach challenge is then repeated after 2, 5, 24, 48, and 72 hours (h). Recording of pressure fluctuations in the chambers are taken for 5 minutes after each nebulisation and analysed to calculate Enhanced Pause (Penh). Airway reactivity is expressed as percentage increase in Penh compared with Penh values from the nebulisation of vehicle.

[3] = as above; type: in vivo, guinea pigs; conditions: male, guinea pig, lung, inhaled; nebulisation with submaximal bronchodilator activity, 2 hours after treatment; read-out: retained dose in the target organ (lung levels)
Procedure: as §1, §2

M2 muscarinic receptors = molecular target: T1, M2 muscarinic receptors (Homo sapiens, UniProt P08172); test: Dissociation / duration of action on M2 receptors; type: binding; conditions: compared with tiotropium bromide
T1 sequence (P08172 1-466): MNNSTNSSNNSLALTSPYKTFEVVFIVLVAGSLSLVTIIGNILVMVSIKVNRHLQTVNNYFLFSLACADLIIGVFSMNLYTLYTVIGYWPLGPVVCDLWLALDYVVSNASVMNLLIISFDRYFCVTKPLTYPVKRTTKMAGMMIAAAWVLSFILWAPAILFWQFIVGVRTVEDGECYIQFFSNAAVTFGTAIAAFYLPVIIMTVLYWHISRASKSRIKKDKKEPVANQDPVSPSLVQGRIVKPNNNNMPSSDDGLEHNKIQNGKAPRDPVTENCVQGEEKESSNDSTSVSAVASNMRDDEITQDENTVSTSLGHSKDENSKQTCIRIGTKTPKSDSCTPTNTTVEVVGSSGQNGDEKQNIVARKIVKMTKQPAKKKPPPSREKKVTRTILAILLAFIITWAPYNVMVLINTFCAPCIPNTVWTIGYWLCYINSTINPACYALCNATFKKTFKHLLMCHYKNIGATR

muscarinic receptors = test: Receptor potency and duration of action compared with tiotropium bromide

- EC50 ([1]; carbachol 3×10^−7 M, % of isoproterenol-induced maximal relaxation, n=12): 0.54 nM
SMILES: COc1ccc(C[C@@H](C)NC[C@H](O)c2ccc(O)c3[nH]c(=O)ccc23)cc1 [carmoterol, reference compound]

SMILES: O=C(C[N+]12CCC(CC1)C(OC(=O)N(Cc1cc(F)c(F)c(F)c1)c1cccc(F)c1)C2)c1cccs1 (stereo not shown) [compound 1′, 3-[[[(3-fluorophenyl)[(3,4,5-trifluorophenyl)methyl]amino]carbonyl]oxy]-1-[2-oxo-2-(2-thienyl)ethyl]-1-azoniabicyclo [2.2.2]octane]
- EC50 [1]: 0.93 nM
- bronchoprotective effect ([2]; 25 μM inhalation): 63.7±15.1%
- inhibition of Ach-induced increase in Penh ([2]; 50 μM inhalation, 48 hours): 49.2±23.2%
- bronchoprotective effect ([2]; 50 μM inhalation): 87.1±8.7%
- maximal effect, inhibition of Ach-induced increase in Penh ([2]; 50 μM nebulised, two hours after end of nebulisation): 99.6±0.4
- inhibition of Ach-induced increase in Penh (effect) ([2]; 250 μM inhalation, 48 hours): 83.0±16.1%
- residual activity, inhibition of Ach-induced increase in Penh ([2]; 250 μM inhalation, 72 hours): 34.8±20.9%
- duration of effect ([2]; inhalation of lower concentrations (below 25 μM)): ≤ 5 h
- concentration at 2 h [3]: ~50 ng/g

SMILES: O=C(C[N+]12CCC(CC1)C(OC(=O)N(Cc1cc(F)c(F)c(F)c1)c1cccc(F)c1)C2)c1cccs1 (stereo not shown) [chloride salt of active compound 1, 3-[[[(3-fluorophenyl)[(3,4,5-trifluorophenyl)methyl]amino]carbonyl]oxy]-1-[2-oxo-2-(2-thienyl)ethyl]-1-azoniabicyclo[2.2.2]octane]
- duration of action on the M2 receptors (M2 muscarinic receptors): significantly short-acting
- duration of action (muscarinic receptors): equieffective to tiotropium bromide
- receptor potency (muscarinic receptors): equieffective to tiotropium bromide
